Experiment [1] has as its target T1, Cdc4^WD40 (Saccharomyces cerevisiae, UniProt P07834).
T1 sequence (P07834 367-744): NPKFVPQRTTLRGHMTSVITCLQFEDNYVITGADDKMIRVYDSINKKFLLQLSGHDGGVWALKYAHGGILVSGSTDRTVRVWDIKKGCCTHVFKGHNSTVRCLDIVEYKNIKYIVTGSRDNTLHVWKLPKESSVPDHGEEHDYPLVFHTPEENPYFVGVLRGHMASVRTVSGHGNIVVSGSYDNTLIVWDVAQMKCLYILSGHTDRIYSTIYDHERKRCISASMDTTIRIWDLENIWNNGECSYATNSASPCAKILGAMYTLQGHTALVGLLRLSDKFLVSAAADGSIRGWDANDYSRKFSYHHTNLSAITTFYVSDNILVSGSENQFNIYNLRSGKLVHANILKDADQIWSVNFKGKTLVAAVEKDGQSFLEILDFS
The settings on record: compared to a singly phosphorylated high-affinity CPD of similar affinity for Cdc4; cited from earlier work. The text has this: The phenomenon of allostery, whereby ligand binding at one site alters interactions at a physically distant site, allows for complex control of protein function. […] SCF-I2 elicits this allosteric effect through structural changes that occlude the P−2 region of the CPD pocket.

Experiment [2] addresses T1, Cdc4^WD40. As to the kind of experiment: Isothermal titration calorimetry (ITC) with Cdc4^WD40. Details: species or system yeast. The settings on record: 20 °C, cell 30 μM Cdc4^WD40, syringe 100 μM pSic1 or 200 μM SCF-I2, 50 mM Na2HPO4 pH 7.2, 150 mM NaCl, 2 mM β-mercaptoethanol, single-site model, repeated twice, read-out: Kd value for binding Cdc4^WD40 (ITC). The text has this:
We determined the effects of substrate binding on the isolated WD40 domain of Cdc4 (Cdc4^WD40), which is more amenable to NMR due to its size (40 kDa) than the minimal Cdc4-Skp1 complex (∼70 kDa). The N-terminal targeting region of Sic1 (residues 1-90, called Sic1^1-90), which contains 7 of the 9 Sic1 CPD sites and is sufficient for Cdc4 binding, was phosphorylated to completion by Cln2-Cdc28-Cks1 kinase (called pSic1). We used isothermal titration calorimetry (ITC) to determine the affinity of Cdc4^WD40 for pSic1 and SCF-I2 (Supplementary Fig. 1a–c). […] The Kd value for SCF-I2 binding Cdc4^WD40 was 0.6±0.02 μM, concordant with the ∼2 μM Ki value determined for SCF-I2-Cdc4-Skp1 by a fluorescence polarization competition assay.
ITC experiments were performed using VP-ITC and iTC200 microcalorimeters (MicroCal Inc., Northampton, MA) at 20 °C with the sample cell containing 30 μM Cdc4^WD40 and the syringe loaded with 100 μM pSic1 or 200 μM SCF-I2. The samples were dialysed in buffer containing 50 mM Na2HPO4, pH 7.2, 150 mM NaCl, 2 mM β-mercaptoethanol. Runs were performed using 13–20 injections at an interval of 120 s and each binding experiment was repeated twice. Using the Origin software provided by MicroCal Inc., heat associated with each injection was integrated and thermodynamic parameters were extracted by fitting the data to a single-site binding model.

Experiment [3] has as its target Skp1-Cdc4 complex (Saccharomyces cerevisiae, UniProt P07834+P52286). The experiment is described as follows: Fluorescence polarization inhibition by SCF-I2 of Ash1 peptide binding to Skp1-Cdc4. Conditions: compared with Ash1^18pT286/pT290 or Ash1^18pT286/pT290/pS294 peptides. Further details: species or system yeast.
From the text: (f) Fluorescence polarization of the fluorescein-labelled Ash1 peptides (circle, pT286/pT290/pS294, square, pT286/pT290, triangle, pT290/pS294, inverted triangle doubly phosphorylated CycE peptide) in the presence of increasing concentrations of the recombinant Skp1-Cdc4 complex (mP, millipolarization unit). (g) Fluorescence polarization of the fluorescein-labelled Ash1 peptides (circle, pT286/pT290/pS294, square, pT286/pT290, triangle, pT290/pS294, inverted triangle, doubly phosphorylated CycE peptide) in the presence of increasing concentrations of the SCF-I2 inhibitor.
Fluorescence polarization assays containing 0.21 μM Skp1-Cdc4 complex and 10 nM fluorescently labelled cyclin E-derived or Ash1-derived phosphopeptides in 10 mM HEPES (pH 7.5), 40 mM NaCl, 0.1 mg ml^−1 BSA and 1 mM DTT in a final volume of 23.5 μl per well were performed on an Analyst HT plate reader (Molecular Devices Corp., Sunnyvale CA).
In experiment [4] the target is Cdc4-Skp1. Conditions: read-out: Ki value for SCF-I2-Cdc4-Skp1 by fluorescence polarization competition assay; cited from earlier work.

Consider one molecule from article PMC5216119, “An allosteric conduit facilitates dynamic multisite substrate recognition by the SCF^Cdc4 ubiquitin ligase” (Nature Communications, 2017).

Skp1-Cdc4 complex, sequence (P07834 whole entry): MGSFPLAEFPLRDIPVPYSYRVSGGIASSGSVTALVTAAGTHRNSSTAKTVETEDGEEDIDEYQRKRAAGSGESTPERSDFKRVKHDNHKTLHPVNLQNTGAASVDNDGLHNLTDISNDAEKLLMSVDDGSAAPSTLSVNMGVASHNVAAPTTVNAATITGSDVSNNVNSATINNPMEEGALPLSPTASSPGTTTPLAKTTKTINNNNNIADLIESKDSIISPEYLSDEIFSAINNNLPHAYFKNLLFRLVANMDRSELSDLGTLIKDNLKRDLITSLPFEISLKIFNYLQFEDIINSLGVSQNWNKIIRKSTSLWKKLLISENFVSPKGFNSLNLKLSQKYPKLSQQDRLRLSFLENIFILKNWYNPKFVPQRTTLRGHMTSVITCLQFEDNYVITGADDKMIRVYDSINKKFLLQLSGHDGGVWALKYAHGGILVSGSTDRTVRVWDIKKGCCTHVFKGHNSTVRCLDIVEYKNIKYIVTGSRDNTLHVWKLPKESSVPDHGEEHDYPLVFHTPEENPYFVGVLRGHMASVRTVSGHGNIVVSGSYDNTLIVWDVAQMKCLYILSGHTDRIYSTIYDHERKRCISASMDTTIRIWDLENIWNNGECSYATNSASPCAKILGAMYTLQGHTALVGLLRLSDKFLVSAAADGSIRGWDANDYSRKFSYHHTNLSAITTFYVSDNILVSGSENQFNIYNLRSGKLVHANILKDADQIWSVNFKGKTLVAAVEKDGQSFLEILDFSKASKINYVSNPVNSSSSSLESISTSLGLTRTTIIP
Skp1-Cdc4 complex, sequence (P52286 whole entry partner): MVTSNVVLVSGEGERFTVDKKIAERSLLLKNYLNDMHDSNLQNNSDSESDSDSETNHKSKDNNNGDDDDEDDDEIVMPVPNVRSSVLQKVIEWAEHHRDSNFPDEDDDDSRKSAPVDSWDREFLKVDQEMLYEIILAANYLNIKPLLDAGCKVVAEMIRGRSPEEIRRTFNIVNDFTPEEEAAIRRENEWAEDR

On to `O=C(O)c1ccc2ccccc2c1-c1c(C(=O)O)ccc2ccccc12` [SCF-I2], for which, in experiment [1], the “fold lower potency of SCF-I2 towards full-length Sic1” value is given as 10 fold. The Kd in experiment [2] turned out to be 600 ± 20 nM. In addition, the “fold higher potency of SCF-I2 for inhibiting Ash1^18pT290/pS294 binding” value in experiment [3] is on record as 10 fold. Besides, the Ki in experiment [4] is about 2000 nM.
